In US11614434B2, “Genetic information analysis platform oncobox” (Obschestvo s ogranichennoi otvetstvennostyu “Oncobox”, priority 2018, dated 2023):

Tested on: moderately differentiated intrahepatic cholangiocarcinoma
Assay: Clinical case: treatment of a patient with metastatic intrahepatic cholangiocarcinoma, drugs chosen by Oncobox rating
Type: in vivo, human
Source text: The patient was diagnosed in October 2015 with the following symptoms: moderate body weight loss, pain in right hypochondrium, loss of appetite and asthenia, with 70% Karnovsky index. […] The tumour was not surgically excised due to advanced stage, several intrahepatic masses and lung metastasis.
At first, total RNA was isolated from tumour sample and used to measure expression levels for 2,163 genes with CustomArray Inc. (USA) equipment using the microarray hybridization method. These 2,163 genes participate in major human signalling pathways associated with cancer, and also act as the molecular targets of anti-cancer medicinal products. Liver samples without pathological characteristics were taken from healthy donors and used as normal tissue controls. Using the Oncobox algorithm, the rating of target drugs was formed according to the BES values obtained (Table 2).

Question: What does the source list for `CNC(=O)c1cc(Oc2ccc(NC(=O)Nc3ccc(Cl)c(C(F)(F)F)c3)cc2)ccn1` [Sorafenib]?
Answer: tumour status on MRI according to RECIST classification (Sorafenib from May 2016, MRI October 2016): stable disease; period till progression (Sorafenib from May 2016, progressing tumour on MRI January 2017): about 6 months; symptom change after treatment (after treatment with Sorafenib): pain elimination in right hypochondrium; adverse effects (patient on Sorafenib): reddening, edema, pains in palms of the hands and bottoms of the feet
